pIC50: −log10 of the molar value.
These molecules were tested against T1, RsASML (Ralstonia pseudosolanacearum, UniProt Q8XPM9) (assay: biochemical).
T1 construct: gene RSp1609
T1 sequence (Q8XPM9 30-476 limits assumed): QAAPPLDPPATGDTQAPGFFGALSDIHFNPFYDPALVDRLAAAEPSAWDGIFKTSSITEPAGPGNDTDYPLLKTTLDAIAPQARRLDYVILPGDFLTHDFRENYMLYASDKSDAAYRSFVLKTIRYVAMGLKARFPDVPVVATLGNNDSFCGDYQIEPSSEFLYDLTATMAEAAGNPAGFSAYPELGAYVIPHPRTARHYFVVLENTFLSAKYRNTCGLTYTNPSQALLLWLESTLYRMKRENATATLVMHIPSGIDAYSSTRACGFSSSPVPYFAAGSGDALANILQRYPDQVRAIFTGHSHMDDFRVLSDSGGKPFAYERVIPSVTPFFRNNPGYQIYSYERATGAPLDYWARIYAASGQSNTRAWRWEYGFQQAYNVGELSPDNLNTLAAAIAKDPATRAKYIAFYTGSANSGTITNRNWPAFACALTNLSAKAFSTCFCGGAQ

In order of rising pIC50:
1. C[N+](C)(C)CCOP(=O)([O-])O [Phosphocholine]  2.35
2. Nc1ccn([C@@H]2O[C@H](COP(=O)(O)OP(=O)(O)OP(=O)(O)O)[C@@H](O)[C@H]2O)c(=O)n1 [CTP]  2.82
3. O=c1ccn([C@@H]2O[C@H](COP(=O)(O)OP(=O)(O)OP(=O)(O)O)[C@@H](O)[C@H]2O)c(=O)[nH]1 [UTP]  2.87
4. O=P(O)(O)OC[C@H](O)CO [L-α-glycerolphosphate]  3.13
5. O=P(O)(O)O [Phosphate]  3.58
6. Nc1ncnc2c1ncn2[C@@H]1O[C@H](CO)[C@@H](O)[C@H]1O [Adenosine]  3.61
7. Cc1cn([C@H]2C[C@H](O)[C@@H](COP(=O)(O)OP(=O)(O)OP(=O)(O)O)O2)c(=O)[nH]c1=O [TTP]  3.70
8. C[N+](C)(C)CCOP(=O)([O-])OC[C@H](O)CO [L-α-glycerolphosphocholine]  4.19
9. NC(=O)C1=CN([C@@H]2O[C@H](COP(=O)(O)OP(=O)(O)OC[C@H]3O[C@@H](n4cnc5c(N)ncnc54)[C@H](OP(=O)(O)O)[C@@H]3O)[C@@H](O)[C@H]2O)C=CC1 [β-NADPH]  4.28
10. Nc1nc2c(ncn2[C@@H]2O[C@H](COP(=O)(O)OP(=O)(O)OP(=O)(O)O)[C@@H](O)[C@H]2O)c(=O)[nH]1 [GTP]  4.35
11. Cc1cn([C@H]2C[C@H](O)[C@@H](COP(=O)(O)O)O2)c(=O)[nH]c1=O [TMP]  4.45
12. Nc1ncnc2c1ncn2[C@@H]1O[C@H](COP(=O)(O)O)[C@@H](O)[C@H]1O [AMP]  7.12
13. Nc1ncnc2c1ncn2[C@@H]1O[C@H](COP(=O)(O)OP(=O)(O)O)[C@@H](O)[C@H]1O [ADP]  7.15
14. NC(=O)c1ccc[n+]([C@@H]2O[C@H](COP(=O)(O)OP(=O)(O)OC[C@H]3O[C@@H](n4cnc5c(N)ncnc54)[C@H](O)[C@@H]3O)[C@@H](O)[C@H]2O)c1 [NAD^+]  7.18
15. Nc1ncnc2c1ncn2[C@@H]1O[C@H](COP(=O)(O)OP(=O)(O)OP(=O)(O)O)[C@@H](O)[C@H]1O [ATP]  7.23
